Results published in patent publication US10143642B2, “Sunscreen molecule and compositions thereof” (Conopco, Inc., priority 2013, dated 2018).

Test: Stability of sunscreen actives on HPTLC plates exposed to UV radiation (densitometry)
Format: physicochemical
Conditions: HPTLC plate, densitometry scan at 357 nm; for % active, 0 hr: UV radiation 5.5 mW/cm^2, 0 hr exposure; for % active, 1 hr: UV radiation 5.5 mW/cm^2, 1 hr exposure; for % active, 2 hr: UV radiation 5.5 mW/cm^2, 2 hr exposure
Experimental: Sunscreen actives singly or as combinations as shown in Table-1 were checked for stability using the following procedure:
The method was based on spotting the HPTLC plates (in duplicate) with the sunscreen molecules of interest along with potential quencher molecules or formulations. The plate is then exposed to UV radiation (intensity 5.5 mW/cm^2) for 120 minutes. Following this the chromatographic separation was carried out using appropriate solvent system. Densitometry analysis is done to determine the amount of sunscreen degraded. Stock solutions were prepared in methanol following the ratios as mentioned in the following table. 14 μL of stock solutions were loaded (3 mm width; 16 mm separation) on a 10×10 cm F254 HPTLC plate, using CAMAG LINOMAT 5 applicator equipped with a 100 μL micro-syringe (Hamilton, Switzerland). Ascending chromatography was performed at a distance of 85 mm in a TLC chamber using n-hexane-ethyl acetate 9:1 (v/v) as the mobile phase (˜10 mL). The plates were dried at room temperature and subjected to ultraviolet absorption densitometry scan. The concentration dependent fluorescent bands due to presence of sunscreens were detected with a linear scan at 357 nm, using Camag TLC Scanner 3, in the presence of deuterium source. Slit width of 8×0.4 mm and scanning rate of 20 mm s^−1 were maintained during each densitometry scan. Concentrations of Parsol 1789 & the compound of present invention on each lane were determined from densitogram peak areas; prior and after the sun exposure using Win CATS Planar chromatography manager software.

Structure (SMILES) | % active, 0 hr [%] | % active, 1 hr [%] | % active, 2 hr [%]
COc1ccc(/C(O)=C/C(=O)c2ccc(C(C)(C)C)cc2)cc1 [Example 1, Parsol 1789] | 100 | 28 | 5
COC(=O)CCC(C)C1CCC2C3C(OC(=O)COc4ccc(C(=O)/C=C(\O)c5ccc(C(C)(C)C)cc5)cc4)C[C@@H]4CC(OC(=O)C(C#N)=C(c5ccccc5)c5ccccc5)CCC4(C)C3CCC12C (stereo partly drawn) [Example 5, UVB & UVA modified methyl ester of chenodeoxy cholic acid] | 100 | 93 | 86
